Laboratory results as given in ChEMBL document CHEMBL1201862, “PubChem BioAssay data set” (2004).
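Each compound was tested at five concentrations against cells in 96-well plates for 48 hours. GI50 = concentration required for 50% inhibition of growth.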 The source made the active and inactive calls. Rule as the data show it: active = GI50 up to about 1.1 µM and inactive = higher.

Experiments:
Experiment in all cases: growth of human tumour cells (NCI), 48 h
[1] = test system: A549
[2] = test system: CCRF-CEM
[3] = test system: EKVX
[4] = test system: HL-60
[5] = test system: HOP-62
[6] = test system: IGROV-1
[7] = test system: M14
[8] = test system: MCF7
[9] = test system: NCI-H226
[10] = test system: NCI-H522
[11] = test system: OVCAR-3
[12] = test system: OVCAR-5
[13] = test system: OVCAR-8
[14] = test system: RXF 393
[15] = test system: SF-539
[16] = test system: SK-MEL-5
[17] = test system: SK-OV-3
[18] = test system: SN12C
[19] = test system: SR
[20] = test system: UO-31

Measured: GI50

C=CCNC(=S)N/N=C1\C(=O)Nc2ccc([N+](=O)[O-])cc21
inactive: [1] 34.2 µM | [2] 5.13 µM | [3] 42.2 µM | [4] 54.7 µM | [5] > 100 µM | [6] 23.3 µM | [7] 62.1 µM | [8] 36.1 µM | [9] > 100 µM | [10] 64.1 µM | [11] 69.2 µM | [12] > 100 µM | [13] 50.5 µM | [14] 16.8 µM | [15] > 100 µM | [16] 30.1 µM | [17] 34 µM | [18] 35.5 µM | [19] 10.3 µM | [20] 31.2 µM

CC(=O)OCC1OC(n2c(-c3ccc(Cl)cc3)cc(-c3ccccc3)c(C#N)c2=S)C(OC(C)=O)C(OC(C)=O)C1OC(C)=O (stereo not given)
inactive: [1] 14.5 µM | [3] 17.7 µM | [4] 3.18 µM | [5] 7.85 µM | [6] 13.1 µM | [7] 4.98 µM | [8] 17.3 µM | [9] 4.28 µM | [10] 18.1 µM | [11] 10.6 µM | [12] 19.6 µM | [13] 10 µM | [14] 13.3 µM | [15] 3.99 µM | [16] 11.4 µM | [17] 12.6 µM | [18] 11.2 µM | [19] 10.7 µM | [20] 23.5 µM

O=c1c(-c2ccccc2)c(SCCCN2CCCCC2)n(-c2ccccc2)c(=S)n1-c1ccccc1
inactive: [2] 15.7 µM | [3] > 100 µM | [4] 16.6 µM | [5] 17.8 µM | [6] 17.9 µM | [8] 15.6 µM | [9] 15.3 µM | [10] 22.4 µM | [11] 18.2 µM | [12] > 100 µM | [13] 18.6 µM | [14] 14.3 µM | [15] 15.7 µM | [16] 16 µM | [17] 19.8 µM | [19] 16.2 µM
